# Assay results as given in patent US9125930B2, “EGFR aptamer inhibitor for use in therapy and diagnosis” (CONSIGLIO NAZIONALE DELLE RICERCHE, priority 2010, dated 2015).
# How the values were obtained:
# NIH3T3 cells = assay: Binding on parental NIH3T3 cells; design: species or system mouse; conditions: [32P]-labeled aptamer at 100 nM; relative to scrambled aptamer
# Experimental: Human NSCLC A549, epidermoid carcinoma A431, glioma U87MG and T98G, breast SKBr3, MCF7 and T47D and mouse fibroblast NIH3T3 (all from American Type Culture Collection, Manassas, Va.) cells were grown in Dulbecco's modified Eagle medium (DMEM) supplemented with 10% fetal bovine serum (FBS) and 2 mM L-glutamine (Invitrogen, Carlsbad, Calif.). NIH3T3 cells stably transfected with human EGFR (NIH/EGFR) were grown in DMEM with 10% FBS and 2 mM L-glutamine supplemented with 50 μg/ml Gentamycin.
# (§1) Binding experiments were performed with 5′-[^32P]-labeled RNA. For labeling 2′-F-Py RNAs were 5′-end dephosphorylated using bacterial alcaline phosphatase (Invitrogen, Carlsbad, Calif.) before [^32P]-5′-end-labeled using T4 kinase (Invitrogen) and γ-[^32P]-ATP (6×10^3 Ci/mmol, GE Healthcare Bio-Sciences, Uppsala, Sweden) according to the supplier's instructions.
# (§2) For binding experiments on cells, 3.5×10^4 cells were plated in 24-well plates in triplicate and were incubated with CL4 42-81 aptamer the scrambled sequence used as a negative control at 100 nM concentration in 200 μl of DMEM serum free for 20 min at RT in the presence of 100 μg/ml polyinosine as a nonspecific competitor (Sigma, St. Louis, Mo.). After five washings with 500 μl DMEM, bound sequences were recovered in 300 μl of SDS 1%, and the amount of radioactivity recovered was counted.
# glioma U87MG = assay: Binding on U87MG cells; design: species or system human; conditions: no or very low expression of EGFR; 100 nM
# Experimental: as §1, §2
# breast SKBR3 = assay: Binding on SKBR3 cells; design: species or system human; conditions: high level of EGFR; 100 nM
# Experimental: as §1, §2
# [1] = test system: epidermoid carcinoma A431 cells; assay: Binding on A431 cells; design: species or system human; conditions: high level of EGFR; 100 nM
# Experimental: as §1, §2
# ERK = assay: Immunoblot of EGF-induced ERK phosphorylation; type: cell-based, human; conditions: data not shown
# Experimental: To assess the effects of aptamers on EGFR activity, A549 cells (1.5×10^5 cells per 3.5-cm plate) were serum-starved over night, pretreated with 200 nM CL4 42-81 aptamer or the scrambled aptamer used as a negative control for 3 h and then stimulated for 30 min with 50 ng/ml EGF (R&D Systems, Minneapolis, Minn.) either alone or in presence of each aptamer. The aptamers were subjected to a short denaturation-renaturation step (85° C. for 5 min, snap-cooled on ice for 2 min, and allowed to warm up to 37° C.) before each treatment. To prepare cell extracts, cells were washed twice in ice-cold PBS, and lysed in buffer A (50 mM Tris-HCl pH 8.0 buffer containing 150 mM NaCl, 1% Nonidet P-40, 2 mg/ml aprotinin, 1 mg/ml pepstatin, 2 mg/ml leupeptin, 1 mM Na3VO4). Protein concentration was determined by the Bradford assay using bovine serum albumin as the standard. The cell lysates were subjected to SDS-PAGE. […]
# A431 cells = assay: Cell viability assay, A431 cells; type: cell-based, human
# Experimental: Cell viability was assessed with CellTiter 96® AQueous One Solution Cell Proliferation Assay (Promega, Madison, Wis.) according to according to the supplier's instructions. Cells (4×10^3 cells/well) were plated in 96-well plates in triplicate. and were treated for 24 hs with heat denatured CL4 42-81 or the scrambled aptamer at 3 μM concentration. RNA concentrations were determined to ensure the continuous presence of a concentration of at least 200 nM, which takes into account the 6 hs-half life of the aptamer in 10% serum. The optical density (OD) was measured using a Multilabel Counter (Bio-Rad) at a wavelength of 490 nm and cell viability was calculated by the following formula: Cell viability (%)=(OD treated cells/OD control cells)×100%. FACS Analysis
# A549 cells = assay: Apoptosis assay by PI staining and FACS; type: cell-based, human; design: dose or concentration left out as unconfirmed
# Experimental: For apoptosis assay, DNA content analysis was performed by staining with propidium iodide (PI) and analyzing cells by flow cytometry (FACS).
# […] Cells were incubated with 2 μg/ml propidium iodide (PI, Sigma, St. Louis, Mo.) for 30 min at 4° C. and recovered. The relative proportion of cells with DNA content indicative of apoptosis (ipoploid) was determined by FACS.
# A549 tumors = assay: Tumor growth in A549 mouse xenograft; type: in vivo; conditions: day 16, with respect to CL4 scrambled control, 200 pmols intratumoral three times a week
# Experimental: The volume injections are small enough to preclude the compounds being forced inside the cells due to a nonspecific high-pressure injection. Tumors were measured every 3 days with calipers in three dimensions. The following formula was used to calculate tumor volume: VT=(W×L×H)×0.5236 (W, the shortest dimension; L, the longest dimension; H, the intermediate dimension). The growth curves are plotted as the means tumor volume±s.e.m. Statistical analysis of tumor size data was conducted using a one-way ANOVA. A P-value of 0.05 or less was considered to indicate a significant difference. […]
# Athymic CD-1 nude mice (nu/nu) were housed in a highly controlled microbiological environment, thus to guarantee specific pathogen free conditions. Mice were injected subcutaneously with 3×10^6 (in 100 μl) in vitro propagated A549. Sixteen non-necrotic tumors of about 0.5 cm in diameter were randomly divided into two groups of eight mice as follows: group 1, CL4 scrambled-treated; group 2, CL4 42-81-treated. Aptamers (200 pmols/injection) were injected intra-tumorally in 100-1 μl volumes three times a week for 16 days. Tumors were measured every 2 days.
substance,measurement,setting,value
"CL4 42-81: 2′-fluoropyrimidine nuclease-resistant RNA aptamer of 39 nt: 5′ GCCUUAGUAACGUGCUUUGAUGUCGAUUCGACAGGAGGC 3′ (SEQ ID No. 1) (2'-fluoro at CU, RNA at AG, backbone not given here)",binding on parental NIH3T3 cells,NIH3T3 cells,does not binding
same,binding on U87MG cells,glioma U87MG,does not bind
same,binding on SKBR3 cells,breast SKBR3,binds
same,binding on A431 cells,[1],binds
same,EGF-induced phosphorylation of ERK,ERK,decreases
same,sensitivity of A431 cell viability,"A431 cells; 200 nM-final concentration, not shown",same effect
same,cell viability,"A431 cells; A431, 24 hs, 200 nM final concentration, relative to untreated cells set to 100%",about 60%
same,percentage of apoptotic cells (sub-G1 peak),"A549 cells; A549, 24 hs",about 30%
same,percentage of apoptotic cells (sub-G1 peak),"A549 cells; A549, 48 hs",40%
same,inhibition of tumor growth (tumor volume),A549 tumors,57%
